In the case of `O=C(Nc1nnc(SCc2ccccc2)s1)C1CC1`, the melting point lay in the range of 182 to 184 °C.
The value for `O=C(NCc1ccc(Cl)cc1)c1cn2c3c(cc(CN4CCOCC4)cc3c1=O)OC(CN1CCCCC1)C2` (stereo unspecified) was 213 to 215 °C; that for `CCOC(=O)CCc1cccc(N)c1` was 132 to 135 °C.
On to `CN1CCCC1CNC(=O)c1cc(S(=O)(=O)N(C)C)cc2c1OCCO2` (stereo unspecified), for which the melting point fell in the range of 165 to 166 °C.
For `CC1(C)Oc2ccc(OCc3ccccc3)cc2C(O)C1Br` (stereo unspecified), the melting point lay in the range of 126 to 128 °C.
In turn, `CN1CC2Cc3ccc(Cl)cc3C(C)(O)C2C1` (stereo unspecified) came in with a melting point of 125 to 130 °C.
Under `CN1Cc2ccccc2C(=O)c2cc(CC(=O)O)cc(Br)c21` stands 164 to 167 °C.
The value for `COC(=O)C(C)Oc1ccc(Oc2ccc3ccccc3n2)cc1` (stereo unspecified) was 95 to 100 °C; that for `COCc1nc2cccnc2n1Cc1ccc(C(=O)N(C(C)C)C2CCCCC2)cc1OC` was 126 °C; that for `N#Cc1ncc(OC2SCC(O)C(O)C2O)cc1F` (stereo unspecified) was 155 to 156 °C.
As to `CCOC(=O)c1ccc(N)c(Cl)c1`, the melting point lay in the range of 82 to 83 °C.
Molecule `COC(=O)c1cnn(-c2cc(Cl)cc(Cl)c2)c1C(N)=O` registered a melting point of 220 to 222 °C.
`N#Cc1cccc(C2SC[C@@H](C(=O)O)N2C(=O)CCCCCC(=O)N2C(c3cccc(C#N)c3)SC[C@H]2C(=O)O)c1` (stereo partly specified): the melting point fell in the range of 105 to 112 °C.
For `CN(C)c1ccc(NC(=O)C(CS)Cc2ccccc2)cc1C(=O)O` (stereo unspecified), the melting point was 85 to 89 °C.
Turning to `N#CC(C(=O)Nc1ccccc1)C(=O)c1nn(-c2ccccc2)c2c1Cc1ccc(Cl)cc1-2` (stereo unspecified), the melting point is 259 to 263 °C.
Molecule `NC(=O)Cc1nc(C(=O)c2ccccc2)no1` registered a melting point of 156 to 158 °C.
As for `O=C1C=C(N2CCC3(CC2)CSC2=C(O3)c3ccccc3C(=O)C2=O)c2ccccc2C1=O`, the melting point lay within 250 to 260 °C.
Under `CC(C)(C)OC(=O)CC(=O)c1ccco1` stands 74 to 75 °C; under `COC(=O)C(Cc1ccc(OCc2ccccc2)cc1)N1CC(N2C(=O)c3ccccc3C2=O)C1=O` (stereo unspecified), 147 to 148 °C; under `CC1=C(C)C(=O)C(CCCCC#CCCCC#CC(=O)O)=C(C)C1=O`, 49 to 51 °C.
On to `O=C(O)c1cccc(-c2ccc3c(c2)C(c2ccc(Cl)cc2Cl)CC3)c1` (stereo unspecified), for which the melting point lay within 157 to 158 °C.
The value for `CCC(CC)COc1cnc(N)nc1N` was 173 to 174 °C; that for `CC(C)C(=O)NC1C=CC(CO)C1` (stereo unspecified) was 80 to 81 °C.
In turn, `O=c1ccocc1OCc1ccccc1` showed a melting point of 82 to 85 °C.
For the molecule `CN(C)c1ccc(C(=O)C=Cc2ccc([N+](=O)[O-])cc2)cc1`, the melting point fell in the range of 198 to 200 °C.
Under `O=c1[nH][nH]c(=O)n1CCOc1ccccc1` stands 187 to 189 °C.
The value for `Cc1ccc(S(=O)(=O)Nc2ccccc2O)cc1` was 140 °C; that for `CCOC(=O)c1ccc2ccc(O)cc2c1` was 155 to 156 °C.
As for `CON1CCCNC1=C[N+](=O)[O-]`, the melting point was 84 to 85 °C.
Molecule `CCCCOC(=O)c1ccccc1-c1ccc(Cn2c(CCC)nc(C(C)(C)O)c2C(=O)OCOC(=O)OC(C)C)cc1` returned a melting point of 85 to 87 °C.
In turn, `COC(=O)C(CCON1C(=O)c2ccccc2C1=O)NC(=O)Cc1ccccc1` (stereo unspecified) returned a melting point of 138 to 139 °C.
`CNC(=O)c1nn(-c2ccccc2)c(O)c1N=Nc1ccc(S(=O)(=O)NCCCCCCBr)cc1`: the melting point was 234 to 236 °C.
`CC(=O)SCC(=Cc1ccc(C(F)(F)F)cc1)C(=O)NCCC(=O)OCc1ccccc1`: the melting point amounted to 79 °C.
Consider `CC(C)c1nn(-c2ccc(C(F)(F)F)cn2)cc1CCCCOc1ccc(CC(=O)O)cc1`, for which the melting point lay within 130 to 131 °C.
`CC(=O)OCc1c(C(=O)C(=O)O)c2cc(-c3cccc(C)c3)ccc2n1Cc1ccc(C(C)(C)C)cc1` returned a melting point of 91 to 92 °C.
The molecule `OC(c1ccc(Cl)cc1)c1cccc(Br)n1` (stereo unspecified) had a melting point of 64.5 to 65 °C.
